Measurements: ChEMBL document CHEMBL5113424, “Identification of small-molecule urea derivatives as PTPC modulators targeting the c subunit of F1/Fo-ATP synthase” (Bioorg Med Chem Lett, 2022)
Active and inactive are the calls of the source. The calls are words filed in the database; no cut-off is given here.

These compounds were tested on AC16 [Human hybrid] (assay: Inhibition of PTPC in human AC16 cells at 1 uM measured by calcein-cobalt assay relative to control). Conditions: not given.
Type: cell-based

Row | Structure (SMILES) | inhibition
1 | COc1ccc(NC(=O)Nc2ccccc2)cc1 | 4.6%
2 | O=C(NC1CCCCC1)NC1CCCCC1 | 28%
3 | O=C(NC1CCCC1)NC1CCCC1 | 16.4%
4 | N#Cc1ccc(NC(=O)Nc2ccc(C#N)cc2)cc1 | 25.4%
5 | O=C(Nc1ccccc1)Nc1ccccc1 | 28.1%
6 | CCOC(=O)c1ccc(NC(=O)Nc2ccc(C(=O)OCC)cc2)cc1 | 9.75%
7 | O=C(NC1CC1)NC1CC1 | 3.87%
8 | CC(C)(C)NC(=O)NC1CCCCC1 | 43.2%
9 | C(=NC1CCCCC1)=NC1CCCCC1 | Active

Organism: Homo sapiens
Experiment: Binding affinity to F1F0-ATP synthase subunit C (unknown origin) measured by cellular thermal shift assay (CETSA)
Conditions: not given

Row | Structure (SMILES) | Activity
10 | O=C(NC1CCCCC1)NC1CCCCC1 | Active

Each compound was assayed on AC16 [Human hybrid] (assay: Activation of PTPC in human AC16 cells at 1 uM measured by calcein-cobalt assay relative to control). Conditions: not given.
Type: cell-based

Row | Structure (SMILES) | inhibition [%]
11 | S=C(NC1CCCCC1)NC1CCCCC1 | 32.4
12 | S=C(NCc1ccccc1)NCc1ccccc1 | 37.2
13 | S=C(Nc1ccccc1)NC1CCCCC1 | 3
14 | O=C(NCc1ccccc1)NCc1ccccc1 | 30.4

Same assay, conditions: filed as activator

Row | Structure (SMILES) | inhibition [%]
15 | COc1ccc(NC(=O)Nc2ccc(OC)cc2)cc1 | 53.6
16 | CC(C)(C)OC(=O)NC1CCCCC1 | 42.5
